One block for each compound: values may come before it.
Key:
[1] = Acid dissociation constants of SOL; assay type: physicochemical
Excerpt: [drawing 4] and pharmaceutically acceptable salts, hydrates, solvates, esters, and prodrugs thereof. The following acid dissociation constants are observed for SOL, pKa1=9.44; pKa2=3.5. Such dissociation constants are illustrative of compounds that may be characterized as having low basicity.

[2] = Dynamic Precipitation Model (absorbance at 500 nm on infusion into blood surrogate); assay type: physicochemical
Method: Dynamic Precipitation Model. The dynamic precipitation apparatus is shown in FIG. 1, and is also described in Johnson et al., (2003). The apparatus includes a predetermined distance, illustratively a 15 cm distance, between the tip of the injection needle and the UV flow cell, and three main components to simulate blood flow and different infusion rates of drug. Illustratively, a Cole-Palmer-Masterflex® 7520-00 peristaltic pump is used to direct the flow of blood surrogate at 5 mL/min. Illustratively, a Harvard Apparatus Precision Syringe Pump 22 is used to infuse drug formulations into the system at various injection rates. Illustratively, a Cary UV-50 Bio Spectrophotometer with a 1.00 cm flow cell is used to monitor absorbance as a measure of precipitation in the formulation-blood surrogate system. Each sample is prepared by dissolving test compound and formulation agents into water or vehicle, and adjusting the pH with either 1 M HCl or 1 M NaOH, as appropriate to the indicated final concentration of test compound. Lactic, citric, and tartaric acid formulation agent stock solutions are made by dissolving the predetermined weight of solid or liquid into water and adjusting pH with either 1 M HCl or 1 M NaOH. The blood surrogate (Isotonic Sorensen's Phosphate Buffer, 0.067 M, pH 7.4) is pumped from a reservoir through Tygon® tubing (R-6306) fitted with 2 IV-set Y-injection sites that pass into the flow cell and terminate in a waste container. […]-35 flow meter, along with a timer and graduated cylinder, is used to measure the rate of surrogate blood flow through the system. Illustratively, flow is 5 mL/min. The test compound formulations are infused at different rates through the downstream second Y-injection site into the flow of the blood surrogate entering into the flow cell. A 0.001 M HCl solution is injected into the first Y-injection site following each infusion of test compound to flush the downstream tubing and flow cell. All injections are performed at 25° C. The spectrophotometer software (Cary UVWin) is set to read a constant absorbance, illustratively 500 nm, versus time. Samples are made with buffer and drug concentrations as described. After the flow rate is confirmed at 5 mL/min, the spectrophotometer is set to record absorbance at 500 nm for 5-10 minutes, and injections are performed at different rates as specified. To prevent any residual precipitation build up in the tubing or flow cell, a flush of pH 3 HCl is performed between injections. The flow cell is optionally visually inspected between runs for the presence of precipitation. Static precipitation measurements are also optionally performed by a two-fold serial dilution of test compound formulation in blood surrogate using a laser pointer as a Tyndall beam to determine the presence of particulates. […] An absorbance at or above 0.05 is considered to be the threshold level for assessing precipitation having phlebitic potential.

[3] = system: New Zealand White female rabbits; assay: Tolerance Evaluation, Multiple-Dose Rabbit Ear Vein Model Study; assay type: in vivo
Method: Tolerance Evaluation of Following Intravenous Infusion in the Rabbit. Multiple-Dose Rabbit Ear Vein Model Study. New Zealand White female rabbits weighing 2.5-3.2 kg are evaluated for pain, ear inflammation and phlebitis after receiving an intravenous infusion of test compound once daily for 5 days.
SOL is dissolved in a 0.5% lactic acid formulation at pH 4, and then into 0.45% saline at concentrations of 2 mg/mL or 3 mg/mL.
Four rabbits are dosed; one vehicle-dosed and one each at 2 mg/mL (rate of 3 mL/min), 3 mg/mL (rate of 3 mL/min) and 3 mg/mL (rate of 4 mL/min). All rabbits receive a dose volume of 5 mL and are dosed via intravenous infusion in the right marginal ear vein once daily for 5 days. Animals are observed during and post (30 minutes) each infusion and reactions recorded.

dog = assay: 28 day toxicology study, intravenous infusion, dog; assay type: in vivo; conditions: 28 days, tartrate-buffered solution of 1 mg/mL in 3% mannitol infused at approximately 1 mL/min
Excerpt: (§1) An intravenous infusion solution of SOL and related compounds suitable for treatment in a disease such as moderately severe to severe community acquired bacterial pneumonia (CABP) is needed. […] However, without being bound by theory, it is believed herein that infusion at higher concentrations and/or at higher rates of infusion, which are highly desirable in the clinical setting, may not be practical with current formulations due to the substantially lower solubility observed with SOL and related compounds compared to other macrolide, enolide, and ketolide compounds.

monkey = assay: 28 day toxicology study, intravenous infusion, monkey; assay type: in vivo; conditions: 28 days, tartrate-buffered solution of 1 mg/mL in 3% mannitol infused at approximately 1 mL/min
Excerpt: as §1

[4] = system: New Zealand White female rabbits; assay: Pain Tolerance Evaluation, Single Dose Rabbit Ear Vein Model Study; assay type: in vivo; conditions: single dose infusions in marginal ear vein, observed during and 30 minutes post infusion
Method: Pain Tolerance Evaluation Following Intravenous Infusion in Rabbit. Single Dose Rabbit Ear Vein Model Study. New Zealand White female rabbits weighing 2.5-3.2 kg are evaluated for pain, ear inflammation and phlebitis after intravenous infusion of test compound. Commercial azithromycin citrate is used as a positive control.
CEM-101 lyo (SOL (250.0 mg), mannitol, USP (250.0 mg), L(+)-tartaric acid, USP (29.0 mg), sodium hydroxide, NF (for pH adjustment to pH 4.2)) is reconstituted in a vehicle or formulation as described herein. The placebo is the same formulation without SOL. The reconstituted SOL or placebo is dissolved in an appropriate vehicles, such as 0.45% saline, 0.5% lactic acid at pH 4 in 0.45% saline, 0.5% lactic acid with 10 mM tartaric acid at pH 4 in 0.45% saline. CEM-101 lyo is dissolved in the appropriate vehicle at concentrations of 2 mg/mL or 3 mg/mL. The CEM-101 placebo formulation is dissolved in 0.45% saline. All rabbits are weighed to calculate dosing volumes.
Azithromycin lyophilized vials are commercially available azithromycin citrate for injection (ZITHROMAX IV) in lyophilized form in a 10-mL vial equivalent to 500 mg of azithromycin for intravenous administration. […]
Animals were observed during and post (30 minutes) each infusion, and reactions were scored according to a modified Draize Score and recorded. […]

- pKa1 [1]: 9.44
- pKa2 [1]: 3.5
- Absorbance ([2]; 1 mg/mL in 0.45% Saline, 0.3 mL/min): BQL
- Absorbance ([2]; 1 mg/mL in 0.45% Saline, 1.0 mL/min): BQL
- Absorbance ([2]; 1 mg/mL in 0.45% Saline, 3.0 mL/min): BQL
- Absorbance ([2]; 1 mg/mL in 0.45% Saline, 6.0 mL/min): about 0.1
- injection rates at which precipitation is noted ([2]; 1 mg/mL in 5% Mannitol): greater than or equal to 3.0 mL/min
- Absorbance ([2]; 1 mg/mL in 5% Mannitol, 0.3 mL/min): BQL
- Absorbance ([2]; 1 mg/mL in 5% Mannitol, 1.0 mL/min): BQL
- Absorbance ([2]; 1 mg/mL in 5% Mannitol, 3.0 mL/min): 0.01
- Absorbance ([2]; 1 mg/mL in 5% Mannitol, 6.0 mL/min): about 0.05
- precipitation ([2]; 2 mg/mL in 10 mM Tartaric Acid in 5% Mannitol, pH 4.2, 3 mL/min, infusion 1 minute): minimal precipitation
- precipitation ([2]; 2 mg/mL in 20 mM Tartaric Acid in 5% Mannitol, pH 4.2, 3 mL/min, infusion 1 minute): minimal precipitation
- precipitation ([2]; 2 mg/mL in 38.5 mM Tartaric Acid and 0.5% Monothioglycerol in 3% Mannitol, pH 4.0, 2, 3 or 4 mL/min, infusion 5 minutes): minimal precipitation
- precipitation ([2]; 2 mg/mL in 38.5 mM Tartaric Acid in 5% Mannitol, pH 4.0, 2, 3 or 4 mL/min, infusion 5 minutes): minimal precipitation
- Absorbance ([2]; 2 mg/mL in 0.45% Saline, 0.3 mL/min): BQL
- Absorbance ([2]; 2 mg/mL in 0.45% Saline, 1.0 mL/min): BQL
- Absorbance ([2]; 2 mg/mL in 0.45% Saline, 3.0 mL/min): about 0.02
- Absorbance ([2]; 2 mg/mL in 0.45% Saline, 6.0 mL/min): about 0.1
- injection rates at which precipitation is noted ([2]; 2 mg/mL in 5% Mannitol): greater than or equal to 1.0 mL/min
- Absorbance ([2]; 2 mg/mL in 5% Mannitol, 0.3 mL/min): BQL
- Absorbance ([2]; 2 mg/mL in 5% Mannitol, 1.0 mL/min): about 0.03
- Absorbance ([2]; 2 mg/mL in 5% Mannitol, 3.0 mL/min): about 0.06
- Absorbance ([2]; 2 mg/mL in 5% Mannitol, 6.0 mL/min): about 0.1
- injection rates at which precipitation is noted ([2]; 3 mg/mL in 0.45% Saline): greater than or equal to 1.0 mL/min
- Absorbance ([2]; 3 mg/mL in 0.45% Saline, 0.3 mL/min): BQL
- Absorbance ([2]; 3 mg/mL in 0.45% Saline, 1.0 mL/min): about 0.02
- Absorbance ([2]; 3 mg/mL in 0.45% Saline, 3.0 mL/min): about 0.1
- Absorbance ([2]; 3 mg/mL in 0.45% Saline, 6.0 mL/min): about 0.3
- injection rates at which precipitation is noted ([2]; 3 mg/mL in 5% Mannitol): greater than or equal to 1.0 mL/min
- Absorbance ([2]; 3 mg/mL in 5% Mannitol, 0.3 mL/min): BQL
- Absorbance ([2]; 3 mg/mL in 5% Mannitol, 1.0 mL/min): about 0.1
- Absorbance ([2]; 3 mg/mL in 5% Mannitol, 3.0 mL/min): about 0.4
- Absorbance ([2]; 3 mg/mL in 5% Mannitol, 6.0 mL/min): about 0.6
- Absorbance ([2]; 3 mg/mL, 3 mL/min, pH 4.0, 0.9% NaCl): − ((−) = ≥0.05)
- injection rates at which precipitation is noted ([2]; 2 or 1 mg/mL in 0.45% saline, 1.0 mL/min is borderline): greater than 1.0 mL/min
Compound: CC[C@H]1OC(=O)[C@@](C)(F)C(=O)[C@H](C)[C@@H](O[C@@H]2O[C@H](C)C[C@H](N(C)C)[C@H]2O)[C@](C)(OC)C[C@@H](C)C(=O)[C@H](C)[C@H]2N(CCCCn3cc(-c4cccc(N)c4)nn3)C(=O)O[C@]12C [SOL, solithromycin]
- effect of tartaric acid on observed precipitation ([2]; 3 mg/mL in 5 mM Tartaric Acid in 5% Mannitol pH 4.2 vs SOL 2 mg/mL in 5% Mannitol, 2 or 3 mL/min, infusion 2 minutes): substantially decreases the amount of observed precipitation
- effect of citrate buffer on precipitation ([2]; 0.5, 1 and 5 mM citrate buffer (pH 4) in 0.45% saline, 2 mg/mL and 3 mg/mL): does not significantly reduce precipitation
- effect of tartrate buffer on precipitation ([2]; 10 or 25 mM tartrate buffer (pH 4) in 0.45% saline, 2 mg/mL and 3 mg/mL): does not significantly reduce precipitation
- observations, Days 4 and 5 ([3]; 2 mg/mL, rate of 3 mL/min, also seen in the vehicle-treated rabbit): mechanical irritation around the needle stick, without reaction distal to the needle
- further observation ([3]; 3 mg/mL, rate of 4 mL/min): Head and ear twitching
- observations, Day 3 until day 5 ([3]; 3 mg/mL, rates of 3 or 4 mL/min): vessel dilation and irritation around and past the needle stick
- adverse effects, Days 1 and 2 ([3]; 0.5% lactic acid formulation pH 4 in 0.45% saline, 5 mL once daily for 5 days, any of the rabbits): No adverse effects
- pain or other adverse events (dog): without evidence of pain or other adverse events
- pain or other adverse events (monkey): without evidence of pain or other adverse events

- Absorbance ([2]; 2 mg/mL, 3 mL/min, 0.9% NaCl): ++++ ((++++) = BQL of <0.003)
Compound: CC[C@H]1OC(=O)[C@H](C)[C@@H](O[C@H]2C[C@@](C)(OC)[C@@H](O)[C@H](C)O2)[C@H](C)[C@@H](O[C@@H]2O[C@H](C)C[C@H](N(C)C)[C@H]2O)[C@](C)(O)C[C@@H](C)C(=O)[C@H](C)[C@@H](O)[C@]1(C)O [erythromycin-lactobionate, erythromycin lactobionate, reference compound]

- Absorbance ([2]; 2 mg/mL, 4 mL/min, 0.45% NaCl): ++++ ((++++) = BQL of <0.003)
- precipitation ([2]; citrate buffered solution in 0.45% saline at 2 mg/mL and 4 mL/min): does not exhibit precipitation and BQL
Compound: Azithromycin Citrate [Azitromycin citrate, reference compound]
- reactions upon test article administration [4]: strong movement of ear, head and body with vocalization

Reference: US10188674B2, “Parenteral formulations for administering macrolide antibiotics” (Cempra Pharmaceuticals, Inc., priority 2012, dated 2019)
